# Data published in ChEMBL document CHEMBL1201862, “PubChem BioAssay data set” (2004).
#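 48-hour exposure; five concentrations; linearly interpolated endpoints. GI50 marks 50% less growth.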 The source made the active and inactive calls. No stated cut-off is given here; in the data, active = GI50 up to about 1.1 µM and inactive = higher.
# Legend:
# Experiment in all cases: NCI anticancer screen, dose series, 48 h
# [1] = system: 786-0
# [2] = system: A498
# [3] = system: A549
# [4] = system: ACHN
# [5] = system: BT-549
# [6] = system: CAKI-1
# [7] = system: CCRF-CEM
# [8] = system: COLO 205
# [9] = system: DLD-1
# [10] = system: DMS-114
# [11] = system: DMS-273
# [12] = system: DU-145
# [13] = system: EKVX
# [14] = system: HCC 2998
# [15] = system: HCT-116
# [16] = system: HCT-15
# [17] = system: HL-60
# [18] = system: HOP-18
# [19] = system: HOP-62
# [20] = system: HOP-92
# [21] = system: HT-29
# [22] = system: Hs-578T
# [23] = system: IGROV-1
# [24] = system: K562
# [25] = system: KM-20L2
# [26] = system: KM12
# [27] = system: LOX IMVI
# [28] = system: LXFL 529
# [29] = system: M14
# [30] = system: M19-MEL
# [31] = system: MCF7
# [32] = system: MDA-MB-231
# [33] = system: MDA-MB-435
# [34] = system: MDA-N
# [35] = system: MOLT-4
# [36] = system: Malme-3M
# [37] = system: NCI-H226
# [38] = system: NCI-H23
# [39] = system: NCI-H460
# [40] = system: NCI-H522
# [41] = system: NCI/ADR-RES
# [42] = system: OVCAR-3
# [43] = system: OVCAR-4
# [44] = system: OVCAR-5
# [45] = system: OVCAR-8
# [46] = system: PC-3
# [47] = system: RPMI-8226
# [48] = system: RXF 393
# [49] = system: SF-268
# [50] = system: SF-295
# [51] = system: SF-539
# [52] = system: SK-MEL-28
# [53] = system: SK-MEL-2
# [54] = system: SK-MEL-5
# [55] = system: SK-OV-3
# [56] = system: SN12C
# [57] = system: SNB-19
# [58] = system: SNB-75
# [59] = system: SNB-78
# [60] = system: SR
# [61] = system: SW-620
# [62] = system: T47D
# [63] = system: TK-10
# [64] = system: U-251
# [65] = system: UACC-257
# [66] = system: UACC-62
# [67] = system: UO-31
# [68] = system: XF498
# [69] = system: RXF 631
structure (smiles),measurement,setting,value
COc1ccc(N2C(=O)/C(=C/c3ccc(N(CCC#N)CCC#N)cc3C)N=C2c2cc([N+](=O)[O-])ccc2Cl)cc1,GI50,[1],4.43 µM (inactive)
same,GI50,[2],5.41 µM (inactive)
same,GI50,[3],4.89 µM (inactive)
same,GI50,[4],22.6 µM (inactive)
same,GI50,[5],53.2 µM (inactive)
same,GI50,[6],7 µM (inactive)
same,GI50,[7],3.77 µM (inactive)
same,GI50,[8],4.34 µM (inactive)
same,GI50,[9],4.51 µM (inactive)
same,GI50,[10],3.32 µM (inactive)
same,GI50,[11],3.3 µM (inactive)
same,GI50,[12],6.34 µM (inactive)
same,GI50,[13],14.5 µM (inactive)
same,GI50,[14],4.68 µM (inactive)
same,GI50,[15],3.94 µM (inactive)
same,GI50,[16],3.84 µM
same,GI50,[17],3.62 µM (inactive)
same,GI50,[18],> 100 µM (inactive)
same,GI50,[19],5.46 µM (inactive)
same,GI50,[20],> 31.7 µM (inactive)
same,GI50,[21],4.07 µM (inactive)
same,GI50,[22],1.54 µM (inactive)
same,GI50,[23],19.7 µM (inactive)
same,GI50,[24],2.62 µM (inactive)
same,GI50,[25],2.31 µM (inactive)
same,GI50,[26],6.52 µM (inactive)
same,GI50,[27],6.43 µM (inactive)
same,GI50,[28],7.53 µM (inactive)
same,GI50,[29],4.67 µM (inactive)
same,GI50,[30],17.1 µM (inactive)
same,GI50,[31],4.81 µM (inactive)
same,GI50,[32],12.6 µM (inactive)
same,GI50,[33],1.96 µM (inactive)
same,GI50,[34],1.56 µM (inactive)
same,GI50,[35],4.73 µM (inactive)
same,GI50,[36],27 µM (inactive)
same,GI50,[37],17 µM (inactive)
same,GI50,[38],7.59 µM (inactive)
same,GI50,[39],4.5 µM (inactive)
same,GI50,[40],2.74 µM (inactive)
same,GI50,[41],> 10 µM (inactive)
same,GI50,[42],3.35 µM (inactive)
same,GI50,[43],> 46.5 µM (inactive)
same,GI50,[44],25.4 µM (inactive)
same,GI50,[45],5.33 µM (inactive)
same,GI50,[46],4.7 µM (inactive)
same,GI50,[47],4.18 µM (inactive)
same,GI50,[48],4.61 µM (inactive)
same,GI50,[49],11 µM (inactive)
same,GI50,[50],3.05 µM (inactive)
same,GI50,[51],3.37 µM (inactive)
same,GI50,[52],11 µM (inactive)
same,GI50,[53],6.15 µM (inactive)
same,GI50,[54],5.43 µM (inactive)
same,GI50,[55],4.54 µM (inactive)
same,GI50,[56],6.31 µM (inactive)
same,GI50,[57],8.13 µM (inactive)
same,GI50,[58],3.3 µM (inactive)
same,GI50,[59],6.9 µM (inactive)
same,GI50,[60],3.24 µM (inactive)
same,GI50,[61],4.55 µM (inactive)
same,GI50,[62],> 89.9 µM (inactive)
same,GI50,[63],21.6 µM (inactive)
same,GI50,[64],4.42 µM (inactive)
same,GI50,[65],46.3 µM (inactive)
same,GI50,[66],5.27 µM (inactive)
same,GI50,[67],5.19 µM (inactive)
same,GI50,[68],2.34 µM (inactive)
CCCCCCCCCCCCC(SCCNC(=O)CCNC(=O)C(O)C(C)(C)COP(=O)(O)OP(=O)(O)OCC1OC(n2cnc3c(N)ncnc32)C(O)C1OP(=O)(O)O)C(=O)NCC(N)=O (stereo not given),GI50,[1],> 100 µM (inactive)
same,GI50,[2],> 100 µM (inactive)
same,GI50,[3],> 100 µM (inactive)
same,GI50,[4],56.6 µM (inactive)
same,GI50,[7],> 100 µM (inactive)
same,GI50,[8],49.2 µM (inactive)
same,GI50,[9],> 100 µM (inactive)
same,GI50,[10],95.1 µM (inactive)
same,GI50,[11],41.3 µM (inactive)
same,GI50,[13],> 100 µM (inactive)
same,GI50,[14],> 100 µM (inactive)
same,GI50,[15],41.3 µM (inactive)
same,GI50,[16],> 100 µM
same,GI50,[17],72.9 µM (inactive)
same,GI50,[18],37.8 µM (inactive)
same,GI50,[19],> 100 µM (inactive)
same,GI50,[20],38.3 µM (inactive)
same,GI50,[21],> 100 µM (inactive)
same,GI50,[23],> 100 µM (inactive)
same,GI50,[25],> 100 µM (inactive)
same,GI50,[26],> 100 µM (inactive)
same,GI50,[27],> 100 µM (inactive)
same,GI50,[28],> 100 µM (inactive)
same,GI50,[29],> 100 µM (inactive)
same,GI50,[30],> 100 µM (inactive)
same,GI50,[36],> 100 µM (inactive)
same,GI50,[37],79.6 µM (inactive)
same,GI50,[38],> 100 µM (inactive)
same,GI50,[39],91.6 µM (inactive)
same,GI50,[40],69.2 µM (inactive)
same,GI50,[42],> 100 µM (inactive)
same,GI50,[43],> 100 µM (inactive)
same,GI50,[44],> 100 µM (inactive)
same,GI50,[45],> 100 µM (inactive)
same,GI50,[48],36 µM (inactive)
same,GI50,[69],> 100 µM (inactive)
same,GI50,[49],> 100 µM (inactive)
same,GI50,[50],> 100 µM (inactive)
same,GI50,[51],52.2 µM (inactive)
same,GI50,[52],> 100 µM (inactive)
same,GI50,[53],> 100 µM (inactive)
same,GI50,[54],> 100 µM (inactive)
same,GI50,[55],18.6 µM (inactive)
same,GI50,[56],40.1 µM (inactive)
same,GI50,[57],66.7 µM (inactive)
same,GI50,[58],2.6 µM (inactive)
same,GI50,[61],> 100 µM (inactive)
same,GI50,[63],> 100 µM (inactive)
same,GI50,[64],34.9 µM (inactive)
same,GI50,[65],> 100 µM (inactive)
same,GI50,[66],> 100 µM (inactive)
same,GI50,[67],64.9 µM (inactive)
